Test results: patent US20200268804A1, “METHODS AND COMPOSITIONS TO MAINTAIN STEM CELL QUIESCENCE” (The Board of Trustees of the Leland Stanford Junior …, priority 2016, published 2020)

Tested on: quiescent MuSCs
Assay: Q-RT-PCR screening of candidate molecules for promotion of MuSC quiescence
Assay type: cell-based, mouse
Settings: 500 quiescent MuSCs cultured 2.5 days with the molecule; gene expression signature
Excerpt: FIG. 8. Screening of molecules titrated at different concentrations. Heat map analysis of gene expression profiles obtained from MuSCs cultured in different concentrations of candidate molecules. In 96 well plates, 500 MuSCs were directly isolated by FACS and cultured in the presence of the candidate molecules titrated at different concentrations. After 2.5 days, cells were collected for combinatorial Q-RT-PCR to screen for the conditions that result mostly closely resemble freshly isolated MuSCs based on the gene expression profiles. A heat map for absolute deviations from expression levels of freshly isolated quiescent MuSCs (QSC) is shown. On the X axis, the molecules tested and the different dilutions employed from the working concentrations are indicated as in FIG. 16. On the Y axis the names of the genes that were tested are listed. The gene names were organized in general functional groups. Each functional group is based on the main function and role in MuSCs.
Knowing that quiescent MuSCs have a unique transcriptional signature, we employed combinatorial QRT-PCR to screen for molecules that, when added to the medium, would promote MuSC quiescence. […]
Single Cell Q-RT-PCR. […] Biomark data was analyzed using Q-RT-PCR Analysis software (Fluidigm). […] For each amplicon, a limit of detection (LOD) was determined by running 10-fold serial dilutions of embryonic cDNA in 6 replicates. […]

Nc1nc(Nc2ccc(S(N)(=O)=O)cc2)nn1C(=O)c1c(F)cccc1F [JMJ-7706621]
quiescence-promoting activity: novel quiescence-promoting activity
